Where a name gives a salt, the structure may show the parent alone.

One experiment deals with TE11 cell line. The experiment is described as follows: PRMT5 Biomarker Assay (symmetrical dimethylation of arginine, Histone H4 Arginine 3). It counts as cell-based. The following applies: Homo sapiens, TE-11; TE11 cells, 72 hours incubation, Di-Methyl Histone H4 Arginine 3 level. The procedure: Compounds of the invention may be tested for potency to inhibit symmetrical dimethylation of arginine in the following assay:
The cell line TE11 was seeded at a density of 6,000 cells per well in 96 well optical quality tissue culture plates in DME medium and 10% foetal bovine serum, and allowed to adhere for 5 hours under standard culture conditions (37 degree Celsius, 5% CO2). Compound dilutions prepared in DMSO were added to the medium, with negative control wells reserved for treatment with DMSO only and maximum inhibition controls receiving a potent PRMT5 inhibitor compound at 1 μM concentration. After incubation for 72 hours, the cells were fixed with 3.7% formaldehyde in PBS for 30 minutes at room temperature, washed with phosphate buffer saline and blocked with Odyssey blocking buffer (LI-COR, Lincoln, Nebr.). Rabbit anti-Di-Methyl Histone H4 Arginine 3 specific antibody (Epigentek) in Odyssey blocking buffer was added and incubated for 14 hours at 4 degree Celsius. After washing, anti-rabbit secondary antibody labelled with Alexa647 dye (LifeTechnologies) and Hoechst 33342 (1 μg/mL, SigmaAldrich) were added for 1 hour incubation. Plates were washed and read on a PerkinElmer Envision 2103 in fluorescence intensity scanning mode (24 scans across the well area). The plates were imaged on a PerkinElmer Phenix high content imaging platform. Using a Columbus image analysis pipeline, individual nuclei were located by Hoechst 33342 stain and the methylation level was calculated from the Alexa647-related intensity in the same area. IC50 values were obtained from the mean Alexa647-related intensity per cell by calculating percent inhibition (% I) for each well relative to controls on the same plate (% I=(I−CN)/(CP−CN) where CN/CP are the averages of the negative/maximum inhibition controls, respectively), then fitting the % I data vs. compound concentration [I] to % I=(A+((B−A)/(1+((C/[I])^D)))) where A is the lower asymptote, B is the upper asymptote, C is the IC50 value, and D is the slope.

The target of experiment [1] is Full-length PRMT5 enzyme co-expressed with His6-MEP50 (Homo sapiens (Human), UniProt O14744). The experiment is described as follows: PRMT5 Biochemical Assay. The following applies: Transcreener EPIGEN methyltransferase assay, histone H4 derived peptide substrate, 4 hours at 37 degree Celsius. The protocol: Compounds of the invention may be tested for in vitro activity in the following assay:
A histone H4 derived peptide is used as substrate (amino acid sequence: […]NH2). Full-length PRMT5 enzyme (NCBI Reference sequence NP_006100.2) was co-expressed with His6-MEP50 in insect cells and purified via Nickel immobilized metal affinity and gel filtration chromatography (“the enzyme”).
The 6 μL reactions are run in Greiner brand black 384-well low volume assay plates. All reactions contained assay buffer (phosphate buffered saline, 0.01% (v/v) Tween-20, 0.01% (w/v) albumin from chicken egg white, 1 mM Dithiothreitol, 1 μM peptide substrate, 1 μM S-Adenosyl methionine, and 15 ng/reaction enzyme, with the enzyme being omitted from negative control reactions. Compounds were added in a volume of 100 nL from dilution series prepared in DMSO, positive and negative control reactions receiving the same volume DMSO without compound. The plates were sealed with adhesive seals and incubated for 4 hours at 37 degree Celsius. Reaction progress was measured using the Transcreener™ EPIGEN methyltransferase assay (BellBrook Labs, Madison, Wis.) as recommended by the manufacturer. To each reaction 2 μL detection mix were added, containing coupling enzymes, fluorescence polarisation tracer, and AMP antibody. Plates were incubated for 90 minutes before being read on a PerkinElmer EnVision™ plate reader in fluorescence polarisation mode. IC50 values were obtained from the raw readings by calculating percent inhibition (% I) for each reaction relative to controls on the same plate (% I=(I−CN)/(CP−CN) where CN/CP are the averages of the negative/positive reactions, respectively), then fitting the % I data vs. compound concentration [I] to % I=(A+((B−A)/(1+((C/[I]^D)))) where A is the lower asymptote, B is the upper asymptote, C is the IC50 value, and D is the slope.

Full-length PRMT5 enzyme co-expressed with His6-MEP50, sequence (O14744 whole entry): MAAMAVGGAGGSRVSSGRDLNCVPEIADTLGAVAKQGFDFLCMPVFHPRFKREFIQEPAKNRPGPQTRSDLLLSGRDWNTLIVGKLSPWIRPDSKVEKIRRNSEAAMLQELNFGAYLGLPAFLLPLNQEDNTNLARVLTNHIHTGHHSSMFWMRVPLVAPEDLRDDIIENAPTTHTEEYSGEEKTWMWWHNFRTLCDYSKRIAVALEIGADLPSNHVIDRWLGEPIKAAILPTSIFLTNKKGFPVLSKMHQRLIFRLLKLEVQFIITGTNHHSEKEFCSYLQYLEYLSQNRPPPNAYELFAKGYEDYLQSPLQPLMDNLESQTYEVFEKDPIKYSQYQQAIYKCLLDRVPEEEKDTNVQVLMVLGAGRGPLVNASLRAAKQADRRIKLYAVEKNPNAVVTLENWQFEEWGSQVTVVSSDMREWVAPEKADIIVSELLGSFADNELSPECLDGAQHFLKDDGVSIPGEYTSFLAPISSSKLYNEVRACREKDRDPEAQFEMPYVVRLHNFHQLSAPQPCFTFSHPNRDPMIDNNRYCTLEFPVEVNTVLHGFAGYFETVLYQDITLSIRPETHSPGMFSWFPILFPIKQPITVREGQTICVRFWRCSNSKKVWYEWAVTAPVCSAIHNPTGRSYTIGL
Full-length PRMT5 enzyme co-expressed with His6-MEP50, sequence (Q9BQA1 whole entry partner): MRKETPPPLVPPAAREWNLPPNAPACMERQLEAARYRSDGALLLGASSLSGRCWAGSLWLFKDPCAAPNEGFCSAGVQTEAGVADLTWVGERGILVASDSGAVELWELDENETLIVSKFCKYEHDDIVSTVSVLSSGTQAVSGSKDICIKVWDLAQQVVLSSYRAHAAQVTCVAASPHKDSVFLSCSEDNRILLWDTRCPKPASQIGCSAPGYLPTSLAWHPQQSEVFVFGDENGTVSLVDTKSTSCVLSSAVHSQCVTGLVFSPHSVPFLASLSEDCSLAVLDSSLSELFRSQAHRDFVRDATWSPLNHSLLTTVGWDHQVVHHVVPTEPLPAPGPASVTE

Consider `CCOc1cc(C(=O)N2C3COCC2CC(O)C3)ccc1C(=O)NC[C@@H](O)[C@@H]1Cc2ccccc2CN1` (stereo partly drawn) [Compound 1, 2-Ethoxy-N—((R)-2-hydroxy-2-((S)-1,2,3,4-tetrahydroisoquinolin-3-yl)ethyl)-4-(7-hydroxy-3-oxa-9-azabicyclo[3.3.1]nonane-9-carbonyl)benzamide Hydrochloride], for which the half-inhibitory concentration (IC50) was found to be 0.0039 µM in the experiment on TE11 cell line and 0.019 µM in experiment [1].

Take `CCOc1cc(C(=O)N2C3CCC2COC3)ccc1C(=O)N(C)C[C@@H](O)[C@@H]1Cc2ccccc2CN1` [Compound 3, 4-(3-Oxa-8-azabicyclo[3.2.1]octane-8-carbonyl)-2-ethoxy-N—((R)-2-hydroxy-2-((S)-1,2,3,4-tetrahydroisoquinolin-3-yl)ethyl)-N-methylbenzamide Hydrochloride]: the IC50 worked out at 0.0117 µM in the experiment on TE11 cell line and 0.036 µM in experiment [1].

In the case of `CCOc1cc(C(=O)N2C3COCC2CC(O)C3)ccc1C(=O)NC[C@@H](O)CNC1Cc2ccccc2C1` (stereo partly drawn) [Compound 2, N—((S)-3-((2,3-Dihydro-1H-inden-2-yl)amino)-2-hydroxypropyl)-2-ethoxy-4-(7-hydroxy-3-oxa-9-azabicyclo[3.3.1]nonane-9-carbonyl)benzamide], the results for the IC50 (in the experiment on TE11 cell line; in experiment [1]) were 0.0006 µM and 0.019 µM, respectively.

What is called IC50 is the concentration at which inhibition is half-maximal.

For the origin of these results see patent US10519167B2, “3-oxa-8-azabicyclo[3.2.1]octane derivatives and their use in the treatment of cancer and hemoglobinopathies” (CTXT PTY LTD, priority 2016, dated 2019).
